Measurements: ChEMBL document CHEMBL1140275, “Discovery of a novel and potent series of dianilinopyrimidineurea and urea isostere inhibitors of VEGFR2 tyrosine kinase” (Bioorg Med Chem Lett, 2005)

Key:
HUVEC = experiment: Inhibitory concentration against human umbilical vein endothelial cells (HUVECs) induced by VEGF; format: functional, cell-based
[1] = target: Vascular endothelial growth factor receptor 2 (Homo sapiens, UniProt P35968); experiment: Inhibitory concentration against human VEGFR2 kinase
Chain of Vascular endothelial growth factor receptor 2 (P35968 whole entry): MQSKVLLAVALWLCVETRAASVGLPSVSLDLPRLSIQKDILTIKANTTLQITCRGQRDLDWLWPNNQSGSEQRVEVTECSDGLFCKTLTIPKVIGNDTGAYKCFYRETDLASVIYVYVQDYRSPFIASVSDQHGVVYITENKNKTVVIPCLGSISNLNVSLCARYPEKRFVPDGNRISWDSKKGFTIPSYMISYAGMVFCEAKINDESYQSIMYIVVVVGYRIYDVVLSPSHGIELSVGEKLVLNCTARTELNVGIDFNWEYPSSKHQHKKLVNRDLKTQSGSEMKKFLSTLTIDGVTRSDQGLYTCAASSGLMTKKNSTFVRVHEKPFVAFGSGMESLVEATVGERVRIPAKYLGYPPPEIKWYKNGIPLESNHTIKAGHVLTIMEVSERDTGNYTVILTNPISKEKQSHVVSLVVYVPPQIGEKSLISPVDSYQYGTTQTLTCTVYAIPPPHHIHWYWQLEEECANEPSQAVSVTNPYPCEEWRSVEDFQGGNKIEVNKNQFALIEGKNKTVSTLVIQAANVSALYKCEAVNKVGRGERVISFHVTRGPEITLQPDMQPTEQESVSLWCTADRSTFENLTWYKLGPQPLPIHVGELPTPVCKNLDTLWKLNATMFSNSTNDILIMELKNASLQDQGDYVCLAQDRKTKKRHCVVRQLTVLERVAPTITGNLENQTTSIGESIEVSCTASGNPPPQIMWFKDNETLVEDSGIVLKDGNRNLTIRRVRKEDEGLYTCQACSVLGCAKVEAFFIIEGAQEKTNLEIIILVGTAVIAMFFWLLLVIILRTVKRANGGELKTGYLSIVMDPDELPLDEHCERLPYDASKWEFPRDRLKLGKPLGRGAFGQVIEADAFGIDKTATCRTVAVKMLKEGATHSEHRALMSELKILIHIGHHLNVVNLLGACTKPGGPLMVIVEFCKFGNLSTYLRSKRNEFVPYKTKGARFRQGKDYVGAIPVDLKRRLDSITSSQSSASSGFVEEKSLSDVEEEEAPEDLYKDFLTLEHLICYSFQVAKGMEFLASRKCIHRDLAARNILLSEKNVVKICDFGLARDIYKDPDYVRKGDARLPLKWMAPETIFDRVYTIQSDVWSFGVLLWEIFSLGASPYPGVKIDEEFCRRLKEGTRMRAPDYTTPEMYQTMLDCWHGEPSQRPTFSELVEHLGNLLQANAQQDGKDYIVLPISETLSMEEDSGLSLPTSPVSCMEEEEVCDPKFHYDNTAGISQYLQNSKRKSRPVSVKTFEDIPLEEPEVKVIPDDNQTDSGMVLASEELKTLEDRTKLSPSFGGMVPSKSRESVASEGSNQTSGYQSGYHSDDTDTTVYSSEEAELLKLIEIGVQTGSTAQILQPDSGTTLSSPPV

Compound	IC50 (HUVEC)	IC50 [1]
CN(c1ccc(NC(=O)Nc2ccccc2)cc1)c1ccnc(Nc2cccc(CS(C)(=O)=O)c2)n1	0.2 nM	
CN(c1ccc(NC(=O)Nc2cc(C(F)(F)F)ccc2F)cc1)c1ccnc(Nc2ccc(S(N)(=O)=O)cc2)n1	8 nM	1 nM
CCNC(=O)Nc1ccc(N(C)c2ccnc(Nc3ccc(CS(C)(=O)=O)cc3)n2)cc1	27 nM	26 nM
CN(c1ccc(NC(=O)Oc2ccccc2)cc1)c1ccnc(Nc2cccc(CS(C)(=O)=O)c2)n1	224 nM	
CN(c1ccc(NS(=O)(=O)Cc2ccccc2)cc1)c1ccnc(Nc2cccc(CS(C)(=O)=O)c2)n1	350 nM	
CN1CCN(C(=O)c2ccc(NC(=O)Nc3ccc(N(C)c4ccnc(Nc5ccc(CS(C)(=O)=O)cc5)n4)cc3)cc2)CC1	516 nM	150 nM
CN(c1ccc(NC(=O)Nc2ccc(OC(F)(F)F)cc2)cc1)c1ccnc(Nc2cccc(CS(C)(=O)=O)c2)n1	7 nM	6 nM
CN1CCN(Cc2ccc(NC(=O)Nc3ccc(N(C)c4ccnc(Nc5ccc(CS(C)(=O)=O)cc5)n4)cc3)cc2)CC1	2 nM	4 nM
CN(C)CCNC(=O)Nc1ccc(N(C)c2ccnc(Nc3ccc(CS(C)(=O)=O)cc3)n2)cc1	2980 nM	3110 nM
CN(c1ccc(NC(=O)Nc2ccc(OC(F)(F)F)cc2)cc1)c1ccnc(Nc2ccc(S(N)(=O)=O)cc2)n1	37 nM	2 nM
CN(C)CCNC(=O)Nc1ccc(N(C)c2ccnc(Nc3cccc(CS(C)(=O)=O)c3)n2)cc1	530 nM	681 nM
CCCCNC(=O)Nc1ccc(N(C)c2ccnc(Nc3cccc(CS(C)(=O)=O)c3)n2)cc1	2 nM	29 nM
CN(c1ccc(NC(=N)Nc2ccccc2)cc1)c1ccnc(Nc2cccc(CS(C)(=O)=O)c2)n1	596 nM	
CN(c1ccc(NC(=O)Nc2cc(C(F)(F)F)ccc2F)cc1)c1ccnc(Nc2ccc(CS(C)(=O)=O)cc2)n1	2 nM	2 nM
CN(c1ccc(N/C(S)=N/c2ccccc2)cc1)c1ccnc(Nc2cccc(CS(C)(=O)=O)c2)n1	6 nM	
CN(c1ccc(NC(=O)Nc2cc(C(F)(F)F)ccc2F)cc1)c1ccnc(Nc2cccc(CS(C)(=O)=O)c2)n1	7 nM	35 nM
CN(c1ccc(NC(=O)Cc2ccccc2)cc1)c1ccnc(Nc2cccc(CS(C)(=O)=O)c2)n1	49 nM	
CN(c1ccc(NC(=O)Nc2cc(C(F)(F)F)ccc2F)cc1)c1ccnc(Nc2cccc(S(N)(=O)=O)c2)n1	10 nM	1 nM
CN(c1ccc(NC(=O)NCCc2ccccc2)cc1)c1ccnc(Nc2cccc(CS(C)(=O)=O)c2)n1	10 nM	11 nM
CC(=O)c1ccc(NC(=O)Nc2ccc(N(C)c3ccnc(Nc4cccc(CS(C)(=O)=O)c4)n3)cc2)cc1	2 nM	3 nM
CN(c1ccc(NC(=O)Nc2ccccc2)cc1)c1ccnc(Nc2cccc(S(N)(=O)=O)c2)n1	2 nM	
CN(c1ccc(NC(=O)NCCN2CCOCC2)cc1)c1ccnc(Nc2ccc(CS(C)(=O)=O)cc2)n1	471 nM	990 nM
CN(c1ccc(NC(=O)N2CCN(CCCN3CCOCC3)CC2)cc1)c1ccnc(Nc2ccc(CS(C)(=O)=O)cc2)n1	850 nM	4490 nM
CN(c1ccc(NC(=O)NC2CCCC2)cc1)c1ccnc(Nc2cccc(CS(C)(=O)=O)c2)n1	1 nM	31 nM
CCNC(=O)Nc1ccc(N(C)c2ccnc(Nc3cccc(CS(C)(=O)=O)c3)n2)cc1	3 nM	17 nM
CN(c1ccc(NC(=O)Nc2ccc(OC(F)(F)F)cc2)cc1)c1ccnc(Nc2cccc(S(N)(=O)=O)c2)n1 [GW806742X]	5 nM	2 nM
CN(c1ccc(NC(=O)Nc2c(Cl)cccc2Cl)cc1)c1ccnc(Nc2cccc(CS(C)(=O)=O)c2)n1 [GW809897X]	29 nM	65 nM
